Like-named read-outs stand apart in the source and are kept apart here.
Tested on: thromboxane B2 (TxB2) formation
Assay: TxB2 generation in clotted whole blood of anaesthetized rabbits after intravenous dosing (method of Patrono et al., RIA)
Assay type: in vivo, New Zealand white rabbits
Conditions: Oryctolagus cuniculus, read-out: Percent Inhibition (%) of TxB2 formation; for inhibition at 1 mg/kg: 1.0 mg/kg i.v.; for inhibition at 0.3 mg/kg: 0.3 mg/kg i.v.; for inhibition at 0.1 mg/kg: 0.1 mg/kg i.v.
Description: A number of in vivo tests in animals have also been described for evaluating potential anti-thrombotic drugs. For instance, the method of Patrono et al. is adapted to study the generation of TxB2 in whole blood samples removed from animals prior to and following drug treatment. Briefly, blood samples are taken into glass tubes and allowed to clot at 37° C. Serum is then separated by centrifugation and the samples stored at -40° C. until assayed for TxB2, when appropriate dilutions of ethanol deproteinized samples are thereafter analyzed by RIA. This technique is used in experiments with the test compounds to determine intravenous potency in anesthetized rabbits.
In this study, male New Zealand white rabbits (2.6-5.6 kg.) are anesthetized with sodium pentobarbitone (30 mg./kg., i.v.), followed by urethane (500 mg./kg., i.p.). After cannulation of the trachea, a carotid artery is catheterized for collection of the blood samples. The catheter is kept patent by slow infusion (0.2 ml./minutes) of sterile saline. Control carotid arterial blood samples are then taken at 30 minutes and at 5 minutes prior to administration of the test compound or vehicle (0.9% w./v. NaCl, 0.2 ml./kg.) via a marginal ear vein. Three groups of rabbits are employed in the test. The first group is given the test compound at 0.03 mg./kg., followed one hour later by a second dose at 0.1 mg./kg. Similarly, the second group is administered the test compound at 0.3 mg./kg., followed by a second dose (one hour later) at 1.0 mg./kg. The third group is treated with the vehicle alone, followed one hour later by a further vehicle injection. Carotid arterial blood samples are then taken at various time intervals after all doses. At each time point, a 1.0 ml. blood sample is taken into a glass tube, without anticoagulant, for TxB2 determination. For the latter determination, the blood sample is allowed to clot during a two-hour incubation period at 37° C. (which preliminary experiments had already shown to give a maximum TxB2 production) and the resulting serum obtained by centrifugation. The serum samples are then processed through the TxB2 -RIA after deproteinization with ethanol and dilution with Isogel Tris buffer.

Row | Compound | inhibition at 1 mg/kg (2 min, 2 min) [%] | inhibition at 0.3 mg/kg (0.25 h, 15 min) [%] | inhibition at 1 mg/kg (0.25 h, 15 min) [%] | inhibition at 0.3 mg/kg (0.5 h, 30 min) [%] | inhibition at 1 mg/kg (0.75 h, 45 min) [%] | inhibition at 1 mg/kg (1.25 h, 75 min) [%] | inhibition at 0.3 mg/kg (2 min, 2 min) [%] | inhibition at 0.1 mg/kg (0.25 h, 15 min) [%] | inhibition at 0.1 mg/kg (0.5 h, 30 min) [%] | inhibition at 0.3 mg/kg (0.75 h, 45 min) [%] | inhibition at 0.3 mg/kg (1.25 h, 75 min) [%]
1 | Cc1c(Cn2ccnc2)c2ccccc2n1/C=C/C(=O)O [Ex. 1, E-3-{1-[2-methyl-3-(1-imidazolyl-methyl)]indolyl}-acrylic acid] | 93 | 93 | 96 | 93 | 95 | 95 |  |  |  |  | 
2 | Cc1c(Cc2cccnc2)c2ccccc2n1/C=C/C(=O)O [Ex. 2, E-3-{1-[2-methyl-3-(3-pyridylmethyl)]indolyl}-acrylic acid] | 97 | 98 | 94 |  | 97 | 95 | 95 | 81 | 82 | 93 | 90

Source: patent US4451472A, “Inhibition of thromboxane synthetase with 3-(heteroalkyl)-indolyl-acrylic acid derivatives” (Pfizer Inc., priority 1981, dated 1984)
